Article PMC9925730, “Controlled sequential in situ self-assembly and disassembly of a fluorogenic cisplatin prodrug for cancer theranostics” (Nature Communications, 2023)
Several values for one entry are separate records, joined by “and”; a condition that tells them apart may be missing. Identical values can stand only once. Like-named read-outs stand apart in the source and are kept apart here.

Tests used:
s.c. HeLa tumors = test: Biodistribution study of Pt (ICP-OES); format: in vivo, mice
HepG2 cells = test: Cytotoxicity, MTT assay; format: cell-based, human; parameters: key to cell viability, mean: % viability = OD / OD of untreated control
Procedure: (§1) HeLa cells were seeded on flat-bottomed 96-well plates (5000 cells per well) and incubated at 37 °C overnight. Varying concentrations of P-CyPt, Pt^IVNPs or CDDP (0, 1, 2, 5, 10, 20, 30, 50, 100, and 200 μM) in DMEM medium (100 μL) were added. Cells were either incubated for 48 h, or firstly incubated with these three compounds for 2 h, washed with PBS and then incubated with refreshed blank DMEM medium for another 48 h. Then, 3-(4,5)-dimethylthiahiazo (-z-y1)−3,5-di-phenytetrazoliumromide (MTT, 50 μL, 1 mg /mL in PBS) was added into each well. The cells were kept at 37 °C for 4 h, and the solution in each well was carefully removed, followed by addition of dimethyl sulfoxide (DMSO, 150 μL). The absorbance (OD) at 490 nm in each well was acquired on the microplate reader (Tcan). The absorbance of non-treated blank cells (OD control) was used as the control. The percentage of cell viability was calculated by dividing OD to the OD control. […]
(§2) Supplementary Table 4. The IC50 (μM) value of different Pt drugs toward HeLa, HepG2 and HEK-293T cells.a
(§3) Compounds Condition IC50 (μM) HeLa HepG2 HEK-293T […]
(§4) a The IC50 values were measured by the MTT assay. Values denote mean ± s.d. (n = 3 independent experiments). b Cells were incubated with varying concentrations of CDDP, P-CyPt or PtIVNPs for […]
(§5) c Cells were incubated with varying concentrations of CDDP, P-CyPt or PtIVNPs for 2 h, and the mediums were removed, washed with PBS. Blank culture mediums were added, and the cells were kept incubation for another 48 h.

HeLa cells = test: Cytotoxicity, MTT assay; format: cell-based, human; parameters: key to cell viability, mean: % viability = OD / OD of untreated control
Procedure: as §1, §2, §3, §4, §5

HEK-293T cells = test: Cytotoxicity, MTT assay; format: cell-based, human; parameters: key to cell viability, mean: % viability = OD / OD of untreated control
Procedure: as §1, §2, §3, §4, §5

[NH2][Pt]([NH2])([Cl])[Cl] [CDDP, cisplatin]
organ with the highest ID% g^−1 (s.c. HeLa tumors; 4 h post i.v. injection): kidneys
ID% g^−1 of Pt in tumors (s.c. HeLa tumors; s.c. HeLa tumors, 4 h post i.v. (100 μM, 200 μL), ICP-OES): ~ 3.6%
IC50 (HepG2 cells; HepG-2, 2+48 h, individual samples, read-out: IC50-2+48h): > 200 µM
IC50 (HepG2 cells; HepG-2, 2+48 h, mean of 3 samples, read-out: IC50-2+48h): > 200 µM
cell viability, mean (HepG2 cells; Supplementary Fig. 23 (b), concentration 1 μM): 95.3204
cell viability, mean (HepG2 cells; Supplementary Fig. 23 (b), concentration 2 μM): 89.9797
cell viability, mean (HepG2 cells; Supplementary Fig. 23 (b), concentration 5 μM): 77.7747
cell viability, mean (HepG2 cells; Supplementary Fig. 23 (b), concentration 10 μM): 61.9896
cell viability, mean (HepG2 cells; Supplementary Fig. 23 (b), concentration 20 μM): 45.1643
cell viability, mean (HepG2 cells; Supplementary Fig. 23 (b), concentration 30 μM): 34.2775
cell viability, mean (HepG2 cells; Supplementary Fig. 23 (b), concentration 50 μM): 23.521
cell viability, mean (HepG2 cells; Supplementary Fig. 23 (b), concentration 100 μM): 12.914
cell viability, mean (HepG2 cells; Supplementary Fig. 23 (b), concentration 200 μM): 8.323
IC50 (HepG2 cells; Supplementary Fig. 23 (b), read-out: IC50): 16.3 µM
cell viability, mean (HepG2 cells; Supplementary Fig. 24 (b), concentration 1 μM): 97.7401
cell viability, mean (HepG2 cells; Supplementary Fig. 24 (b), concentration 2 μM): 96.3386
cell viability, mean (HepG2 cells; Supplementary Fig. 24 (b), concentration 5 μM): 94.9498
cell viability, mean (HepG2 cells; Supplementary Fig. 24 (b), concentration 10 μM): 92.0343
cell viability, mean (HepG2 cells; Supplementary Fig. 24 (b), concentration 20 μM): 89.3937
cell viability, mean (HepG2 cells; Supplementary Fig. 24 (b), concentration 30 μM): 84.3715
cell viability, mean (HepG2 cells; Supplementary Fig. 24 (b), concentration 50 μM): 79.6906
cell viability, mean (HepG2 cells; Supplementary Fig. 24 (b), concentration 100 μM): 74.3564
cell viability, mean (HepG2 cells; Supplementary Fig. 24 (b), concentration 200 μM): 60.8897
IC50 (HepG2 cells; Supplementary Fig. 24 (b), read-out: IC50): > 200 µM
IC50 (HepG2 cells; incubated 2 h, then blank medium 48 h, MTT, read-out: IC50 HepG2): > 200 µM
IC50 (HepG2 cells; incubated 48 h, MTT, read-out: IC50 HepG2): 16.3 ± 1.69 µM
cell viability, mean (HeLa cells; Supplementary Fig. 23 (a), concentration 1 μM): 94.4173
cell viability, mean (HeLa cells; Supplementary Fig. 23 (a), concentration 2 μM): 90.2597
cell viability, mean (HeLa cells; Supplementary Fig. 23 (a), concentration 5 μM): 78.7193
cell viability, mean (HeLa cells; Supplementary Fig. 23 (a), concentration 10 μM): 62.7353
cell viability, mean (HeLa cells; Supplementary Fig. 23 (a), concentration 20 μM): 41.6693
cell viability, mean (HeLa cells; Supplementary Fig. 23 (a), concentration 30 μM): 27.22
cell viability, mean (HeLa cells; Supplementary Fig. 23 (a), concentration 50 μM): 19.0133
cell viability, mean (HeLa cells; Supplementary Fig. 23 (a), concentration 100 μM): 10.56
cell viability, mean (HeLa cells; Supplementary Fig. 23 (a), concentration 200 μM): 6.51
IC50 (HeLa cells; Supplementary Fig. 23 (a), read-out: IC50): 14.5 µM
cell viability, mean (HeLa cells; Supplementary Fig. 24 (a), concentration 1 μM): 98.8285
cell viability, mean (HeLa cells; Supplementary Fig. 24 (a), concentration 2 μM): 97.2876
cell viability, mean (HeLa cells; Supplementary Fig. 24 (a), concentration 5 μM): 95.6072
cell viability, mean (HeLa cells; Supplementary Fig. 24 (a), concentration 10 μM): 92.7687
cell viability, mean (HeLa cells; Supplementary Fig. 24 (a), concentration 20 μM): 89.3445
cell viability, mean (HeLa cells; Supplementary Fig. 24 (a), concentration 30 μM): 83.6169
cell viability, mean (HeLa cells; Supplementary Fig. 24 (a), concentration 50 μM): 75.0853
cell viability, mean (HeLa cells; Supplementary Fig. 24 (a), concentration 100 μM): 65.2268
cell viability, mean (HeLa cells; Supplementary Fig. 24 (a), concentration 200 μM): 49.73
IC50 (HeLa cells; Supplementary Fig. 24 (a), read-out: IC50): 178 µM
IC50 (HeLa cells; incubated 2 h, then blank medium 48 h, MTT, read-out: IC50 HeLa): 178 µM and > 150 µM
IC50 (HeLa cells; incubated 48 h, MTT, read-out: IC50 HeLa): 14.5 ± 1.6 µM
IC50 (HEK-293T cells; HEK-293T, 2+48 h, individual samples, read-out: IC50-2+48h): > 200 µM
IC50 (HEK-293T cells; HEK-293T, 2+48 h, mean of 3 samples, read-out: IC50-2+48h): > 200 µM
cell viability, mean (HEK-293T cells; Supplementary Fig. 23 (c), concentration 1 μM): 95.9542
cell viability, mean (HEK-293T cells; Supplementary Fig. 23 (c), concentration 2 μM): 90.0454
cell viability, mean (HEK-293T cells; Supplementary Fig. 23 (c), concentration 5 μM): 78.4742
cell viability, mean (HEK-293T cells; Supplementary Fig. 23 (c), concentration 10 μM): 63.7251
cell viability, mean (HEK-293T cells; Supplementary Fig. 23 (c), concentration 20 μM): 47.669
cell viability, mean (HEK-293T cells; Supplementary Fig. 23 (c), concentration 30 μM): 34.929
cell viability, mean (HEK-293T cells; Supplementary Fig. 23 (c), concentration 50 μM): 24.7568
cell viability, mean (HEK-293T cells; Supplementary Fig. 23 (c), concentration 100 μM): 14.7932
cell viability, mean (HEK-293T cells; Supplementary Fig. 23 (c), concentration 200 μM): 8.255
IC50 (HEK-293T cells; Supplementary Fig. 23 (c), read-out: IC50): 17.4 µM
cell viability, mean (HEK-293T cells; Supplementary Fig. 24 (c), concentration 1 μM): 98.6071
cell viability, mean (HEK-293T cells; Supplementary Fig. 24 (c), concentration 2 μM): 97.4354
cell viability, mean (HEK-293T cells; Supplementary Fig. 24 (c), concentration 5 μM): 96.6584
cell viability, mean (HEK-293T cells; Supplementary Fig. 24 (c), concentration 10 μM): 94.4248
cell viability, mean (HEK-293T cells; Supplementary Fig. 24 (c), concentration 20 μM): 94.1486
cell viability, mean (HEK-293T cells; Supplementary Fig. 24 (c), concentration 30 μM): 93.57
cell viability, mean (HEK-293T cells; Supplementary Fig. 24 (c), concentration 50 μM): 92.6006
cell viability, mean (HEK-293T cells; Supplementary Fig. 24 (c), concentration 100 μM): 91.2991
cell viability, mean (HEK-293T cells; Supplementary Fig. 24 (c), concentration 200 μM): 85.8671
IC50 (HEK-293T cells; Supplementary Fig. 24 (c), read-out: IC50): > 200 µM
IC50 (HEK-293T cells; incubated 2 h, then blank medium 48 h, MTT, read-out: IC50 HEK-293T): > 200 µM
IC50 (HEK-293T cells; incubated 48 h, MTT, read-out: IC50 HEK-293T): 17.4 ± 1.05 µM
